Like-named read-outs stand apart in the source and are kept apart here. Where only a bound is given, the exact number is not on record here.

The target of assay [1] is T1, bacterial PDF (peptide deformylase), enzyme from S. aureus (Staphylococcus aureus, UniProt P68826).
T1 sequence (P68826 1-183): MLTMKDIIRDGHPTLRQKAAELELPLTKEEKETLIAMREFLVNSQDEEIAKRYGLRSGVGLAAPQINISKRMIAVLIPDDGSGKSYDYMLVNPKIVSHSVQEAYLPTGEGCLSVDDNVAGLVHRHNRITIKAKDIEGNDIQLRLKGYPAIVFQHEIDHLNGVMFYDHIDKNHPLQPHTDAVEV
Nature of the assay: Bacterial peptide deformylase (PDF) assay, enzyme from S. aureus. Type of assay: biochemical. The procedure:
(§1) The IC50 value of a compound of the invention as a bacterial PDF inhibitor was determined using the following assay.
(§2) Assay buffer (pH 7.2): 0.1 M MOPS pH was adjusted to 7.2 with NaOH, containing 0.25 M NaCl, 100 microgram/mL catalase and 1 mg/mL BSA.
(§3) Enzyme mix: 670 ng/mL of enzyme (to finally have 50 ng of enzyme per well).
(§4) Substrate: 10 mM f-Met-Ala was made up from 200 mM f-Met-Ala in methanol with assay buffer.
(§5) TNBS solution: Freshly dilute 1 M TNBS stock solution to 1:10 with water.
(§6) Buffer C: 0.5 M borate buffer adjusted to pH 9.5 with NaOH.
(§7) Buffer D: 0.2 ml of freshly prepared 0.5 M Na2SO3 was mixed with 9.8 mL of 0.5M NaH2PO4.
(§8) Inhibitor solution: 2 mM Sodium 4-(hydroxymercurio) benzoate in assay buffer.
(§9) The assay was performed in a 96 Microtiter plate containing test compound. To each well containing test compound mix was added 75 microliter of enzyme mix from E. coli followed, by the addition of 25 microliter of substrate mix. The resulting mix was incubated for 30 minutes at room temperature with shaking. TNBS solution (50 microliter/well) was added and the resulting mixture was incubated for 15 minutes under shaking. Buffer C was then added (20 microliter/well). After incubating at room temperature for 15 minutes under shaking, buffer D was added (50 microliter/well). The optical […] was then measured at 420 nm, thereby determining the IC50 value.
The assay was repeated using enzyme mix from S. aureus.

Assay [2] deals with bacterial PDF (peptide deformylase), enzyme from E. coli (Escherichia coli, UniProt P0A6K3). The assay can be described thus: Bacterial peptide deformylase (PDF) assay, enzyme from E. coli. Type of assay: biochemical. The procedure: as §1, §2, §3, §4, §5, §6, §7, §8, §9
Setting [3] is: PDF enzyme from S. aureus, substrate f-Met-Ala, TNBS readout at 420 nm, read-out: IC50 (enzyme from S. aureus).

Sequence of bacterial PDF (peptide deformylase), enzyme from E. coli (P0A6K3 whole entry): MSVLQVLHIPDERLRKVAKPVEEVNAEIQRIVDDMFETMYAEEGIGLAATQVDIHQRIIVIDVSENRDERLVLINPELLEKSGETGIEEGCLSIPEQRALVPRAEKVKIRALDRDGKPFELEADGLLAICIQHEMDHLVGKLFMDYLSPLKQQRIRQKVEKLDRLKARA

One may read the IC50 as the point on the concentration scale where inhibition reaches its midpoint. On to `CCN1CC(CC(=O)NO)S(=O)(=O)c2ccc(C(=O)NCc3ccc(OC)cc3)cc21` (centres unmarked) [Example 23, 4-Ethyl-2-hydroxycarbamoylmethyl-1,1-dioxo-1,2,3,4-tetrahydro-1λ^6-benzo[1,4]thiazine-6-carboxylic acid 4-methoxy-benzylamide], for which the IC50 in assay [1] (setting [3]) is 13.1 µM; in assay [2], 4.9 µM.
For the compound `CCCCN1CC(CC(=O)NO)S(=O)(=O)c2ccccc21` (centres unmarked) [Example 8, 2-(4-Butyl-1,1-dioxo-1,2,3,4-tetrahydro-1λ^6-benzo[1,4]thiazin-2-yl)-N-hydroxy-acetamide], the 50% inhibitory concentration (IC50) is 8.1 µM in assay [1] (setting [3]) and 8.8 µM in assay [2].
With `CCN1CC(CC(=O)NO)S(=O)(=O)c2ccc(C(=O)NCc3cccc(Br)c3)cc21` (centres unmarked) [Example 16, 4-Ethyl-2-hydroxycarbamoylmethyl-1,1-dioxo-1,2,3,4-tetrahydro-1λ^6-benzo[1,4]thiazine-6-carboxylic acid 3-bromo-benzylamide], the IC50 in assay [1] (setting [3]) came out at 9.7 µM; in assay [2], 2 µM.
For the compound `CCN1CC(CC(=O)NO)S(=O)(=O)c2ccc(C(=O)NCc3ccncc3)cc21` (centres unmarked) [Example 28, 4-Ethyl-2-hydroxycarbamoylmethyl-1,1-dioxo-1,2,3,4-tetrahydro-1λ^6-benzo[1,4]thiazine-6-carboxylic acid (pyridin-4-ylmethyl)-amide], the IC50 in assay [1] (setting [3]) was 70.5 µM; in assay [2] it was greater than 200 µM.
On to `CCN1CC(CC(=O)NO)S(=O)(=O)c2ccc(C(=O)NCc3ccccc3Br)cc21` (centres unmarked) [Example 15, 4-Ethyl-2-hydroxycarbamoylmethyl-1,1-dioxo-1,2,3,4-tetrahydro-1λ^6-benzo[1,4]thiazine-6-carboxylic acid 2-bromo-benzylamide], for which the IC50 came out at 9.6 µM in assay [1] (setting [3]) and 20 µM in assay [2].
Turning to `CCN1CC(CC(=O)NO)S(=O)(=O)c2ccc(C(=O)NCc3cccc(F)c3)cc21` (centres unmarked) [Example 13, 4-Ethyl-2-hydroxycarbamoylmethyl-1,1-dioxo-1,2,3,4-tetrahydro-1λ^6-benzo[1,4]thiazine-6-carboxylic acid 3-fluoro-benzylamide], the figures for the IC50 in assay [1] (setting [3]) and in assay [2] were 13.7 µM and 11.7 µM, respectively.
As for `CCN1CC(CC(=O)NO)S(=O)(=O)c2ccc(C(=O)NCc3cccc(C(F)(F)F)c3)cc21` (centres unmarked) [Example 24, 4-Ethyl-2-hydroxycarbamoylmethyl-1,1-dioxo-1,2,3,4-tetrahydro-1λ^6-benzo[1,4]thiazine-6-carboxylic acid 3-trifluoromethyl-benzylamide], the IC50 is 8.3 µM in assay [1] (setting [3]) and 2 µM in assay [2].
In the case of `CCN1CC(CC(=O)NO)S(=O)(=O)c2ccc(C(=O)NCc3ccccc3[N+](=O)[O-])cc21` (centres unmarked) [Example 18, 4-Ethyl-2-hydroxycarbamoylmethyl-1,1-dioxo-1,2,3,4-tetrahydro-1λ^6-benzo[1,4]thiazine-6-carboxylic acid 2-nitro-benzylamide], the IC50 in assay [1] (setting [3]) worked out at 11.3 µM; in assay [2], 17.6 µM.
For `CCN1CC(CC(=O)NO)S(=O)(=O)c2ccc(C(=O)NCc3ccccc3OC)cc21` (centres unmarked) [Example 21, 4-Ethyl-2-hydroxycarbamoylmethyl-1,1-dioxo-1,2,3,4-tetrahydro-1λ^6-benzo[1,4]thiazine-6-carboxylic acid 2-methoxy-benzylamide], the IC50 in assay [1] (setting [3]) and in assay [2] was 1.5 µM throughout.
With `CCN1CC(CC(=O)NO)S(=O)(=O)c2ccc(C(=O)NCc3ccc(OC(F)(F)F)cc3)cc21` (centres unmarked) [Example 26, 4-Ethyl-2-hydroxycarbamoylmethyl-1,1-dioxo-1,2,3,4-tetrahydro-1λ^6-benzo[1,4]thiazine-6-carboxylic acid 4-trifluoromethoxybenzylamide], the IC50 turned out to be 5 µM in assay [1] (setting [3]) and 1.1 µM in assay [2].
Taken in the same sequence, the figures for `CCN1CC(CC(=O)NO)Sc2ccccc21` (centres unmarked) [Example 3, 2-(4-Ethyl-3,4-dihydro-2H-benzo[1,4]thiazin-2-yl)-N-hydroxy-acetamide] were 5.6 µM and 2.6 µM.
With `CCN1CC(CC(=O)NO)S(=O)(=O)c2ccc(C(=O)NCc3ccc(Br)cc3)cc21` (centres unmarked) [Example 17, 4-Ethyl-2-hydroxycarbamoylmethyl-1,1-dioxo-1,2,3,4-tetrahydro-1λ^6-benzo[1,4]-thiazine-6-carboxylic acid 4-bromo-benzylamide], the IC50 in assay [1] (setting [3]) was found to be 3.4 µM; in assay [2], 1.5 µM.
For `CCN1CC(CC(=O)NO)S(=O)(=O)c2ccc(C(=O)NCc3ccc(N(C)C)cc3)cc21` (centres unmarked) [Example 27, 4-Ethyl-2-hydroxycarbamoylmethyl-1,1-dioxo-1,2,3,4-tetrahydro-1λ^6-benzo[1,4]thiazine-6-carboxylic acid 4-dimethylaminobenzylamide], the IC50 was 18.2 µM in assay [1] (setting [3]) and 9.3 µM in assay [2].
On the same counts, the results for `CCCCN1CC(CC(=O)NO)Sc2ccccc21` (centres unmarked) [Example 7, 2-(4-Butyl-3,4-dihydro-2H-benzo[1,4]thiazin-2-yl)-N-hydroxy-acetamide] are 35.5 µM and 22 µM.
For the compound `O=C(CC1CN(CC2CCC2)c2ccccc2S1(=O)=O)NO` (centres unmarked) [Example 36, 2-(4-Cyclobutylmethyl-1,1-dioxo-1,2,3,4-tetrahydro-1λ^6-benzo[1,4]thiazin-2-yl)-N-hydroxy-acetamide], the IC50 in assay [1] (setting [3]) was determined as 3.8 µM; in assay [2], 3.3 µM.
`CCN1CC(CC(=O)NO)S(=O)(=O)c2ccc(C(=O)NC3CC4CCC(C3)N4C)cc21` (centres unmarked) [Example 34]: the IC50 in assay [1] turned out to be 6 µM; in assay [2] (PDF enzyme from E. coli, substrate f-Met-Ala, TNBS readout at 420 nm, read-out: IC50 (enzyme from E. coli)), 13.8 µM.

For the origin of these results see patent US20090093468A1, “Peptide Deformylase Inhibitors” (priority 2004, published 2009).
